Experimental data from patent US6737383B1, “Herbicidal oxadiazolidines” (priority 1999, dated 2004).

Experiments:
blackgrass = test: Test B pre/postemergence blackgrass; type: in vivo, Alopecurus myosuroides; conditions: for Blackgrass plant response rating: scale of 0 to 10 where 0 is no effect and 10 is complete control
Method in brief: (§1)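 Herbicidal effect was estimated by eye on a ten-point control scale after plants spent twelve to sixteen days in a greenhouse following soil or foliar treatment. Foliar sprays targeted plants at one to four leaves; all doses were formulated in a non-phytotoxic solvent with surfactant.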

crabgrass = test: Test B pre/postemergence crabgrass; type: in vivo, Digitaria sanguinalis; conditions: for Crabgrass plant response rating: scale of 0 to 10 where 0 is no effect and 10 is complete control
Method in brief: as §1

bamyardgrass = test: Test B flood test barnyardgrass; type: in vivo, Echinochloa crus-galli
Method in brief: (§2)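 Plants were grown to the 2-leaf stage before treatment with test chemical, then held in a greenhouse for twelve to sixteen days. Injury was visually rated against untreated controls on a 0–10 scale, where 0 is no effect and 10 is complete control.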

cocklebur = test: Test B pre/postemergence cocklebur; type: in vivo, Xanthium strumarium; conditions: for Cocklebur plant response rating: scale of 0 to 10 where 0 is no effect and 10 is complete control
Method in brief: as §1

corn = test: Test B pre/postemergence corn; type: in vivo, Zea mays; conditions: for Corn plant response rating: scale of 0 to 10 where 0 is no effect and 10 is complete control
Method in brief: as §1

purple nutsedge = test: Test B pre/postemergence purple nutsedge; type: in vivo, Cyperus rotundus; conditions: for Nutsedge plant response rating: scale of 0 to 10 where 0 is no effect and 10 is complete control
Method in brief: as §1

rice = test: Test B flood test rice; type: in vivo, Oryza sativa
Method in brief: as §2

soybean = test: Test B pre/postemergence soybean; type: in vivo, Glycine max; conditions: for Soybean plant response rating: scale of 0 to 10 where 0 is no effect and 10 is complete control
Method in brief: as §1

sugar beet = test: Test B pre/postemergence sugar beet; type: in vivo, Beta vulgaris; conditions: for Sugarbeets plant response rating: scale of 0 to 10 where 0 is no effect and 10 is complete control
Method in brief: as §1

surinam grass = test: Test B pre/postemergence surinam grass; type: in vivo, Brachiaria decumbens; conditions: for B. signalgrass plant response rating: scale of 0 to 10 where 0 is no effect and 10 is complete control
Method in brief: as §1

wheat = test: Test B pre/postemergence wheat; type: in vivo, Triticum aestivum; conditions: for Wheat plant response rating: scale of 0 to 10 where 0 is no effect and 10 is complete control
Method in brief: as §1

smallflower flatsedge = test: Test B flood test smallflower flatsedge; type: in vivo, Cyperus difformis
Method in brief: as §2

bedstraw = test: Test B pre/postemergence bedstraw; type: in vivo, Galium aparine
Method in brief: as §1

duck salad = test: Test B flood test duck salad; type: in vivo, Heteranthera limosa
Method in brief: as §2

wild oat = test: Test B pre/postemergence wild oat; type: in vivo, Avena fatua; conditions: for Wild oats plant response rating: scale of 0 to 10 where 0 is no effect and 10 is complete control
Method in brief: as §1

velvetleaf = test: Test B pre/postemergence velvetleaf; type: in vivo, Abutilon theophrasti; conditions: for Velvetleaf plant response rating: scale of 0 to 10 where 0 is no effect and 10 is complete control
Method in brief: as §1

[1] = Postemergence, Rate 125 g/ha, scale 0 to 10, 0 is no effect, 10 is complete control
[2] = Postemergence, Rate 250 g/ha, scale 0 to 10, 0 is no effect, 10 is complete control
[3] = Preemergence, Rate 62 g/ha, scale 0 to 10 (0 no effect, 10 complete control)
[4] = Rate 500 g/ha, Postemergence, scale 0 to 10, 0 no effect, 10 complete control
[5] = Rate 62 g/ha, flood test species, Pre-emergence, visual evaluation after twelve to sixteen days
[6] = Rate 125 g/ha, under heading Pre-emergence, flood test species, visual evaluation after twelve to sixteen days
[7] = Rate 250 g/ha, Pre-emergence, flood-test species, scale 0 to 10, 0 is no effect, 10 is complete control
[8] = Rate 500 g/ha, Pre-emergence, flood test species, scale 0 to 10 (0 no effect, 10 complete control)

Structure (SMILES): CC(C)N(C(=O)n1oc(=O)n(N2CCOCC2)c1=O)c1ccc(F)cc1 [Compound 385]
- Plant response rating, Blackgrass (blackgrass; [1]): 0
- Plant response rating, Blackgrass (blackgrass; [2]): 2
- Plant response rating, Blackgrass (blackgrass; [3]): 0
- Blackgrass plant response rating (0 to 10 scale) (blackgrass; Preemergence, Rate 125 g/ha): 0
- Blackgrass plant response rating (blackgrass; Preemergence, Rate 250 g/ha): 6
- Blackgrass plant response rating (blackgrass; Preemergence, Rate 500 g/ha): 10
- Blackgrass plant response rating (blackgrass; Rate 62 g/ha, Postemergence): 0
- Plant response rating, Blackgrass (blackgrass; [4]): 8
- Plant response rating, Crabgrass (crabgrass; [1]): 7
- Plant response rating, Crabgrass (crabgrass; [2]): 9
- Plant response rating, Crabgrass (crabgrass; [3]): 3
- Crabgrass plant response rating (0 to 10 scale) (crabgrass; Preemergence, Rate 125 g/ha): 9
- Crabgrass plant response rating (crabgrass; Preemergence, Rate 250 g/ha): 9
- Crabgrass plant response rating (crabgrass; Preemergence, Rate 500 g/ha): 10
- Crabgrass plant response rating (crabgrass; Rate 62 g/ha, Postemergence): 6
- Plant response rating, Crabgrass (crabgrass; [4]): 9
- Plant response rating, Barnyardgrass (0 to 10 scale, 0 is no effect, 10 is complete control) (bamyardgrass; [5]): 0
- Barnyardgrass plant response rating (0 to 10 scale, 0 is no effect, 10 is complete control) (bamyardgrass; [6]): 0
- Barnyardgrass plant response rating (bamyardgrass; [7]): 0
- Barnyardgrass plant response rating (bamyardgrass; [8]): 0
- Plant response rating, Cocklebur (cocklebur; [1]): 0
- Plant response rating, Cocklebur (cocklebur; [2]): 0
- Plant response rating, Cocklebur (cocklebur; [3]): 0
- Cocklebur plant response rating (0 to 10 scale) (cocklebur; Preemergence, Rate 125 g/ha): 0
- Cocklebur plant response rating (cocklebur; Preemergence, Rate 250 g/ha): 0
- Cocklebur plant response rating (cocklebur; Preemergence, Rate 500 g/ha): 0
- Cocklebur plant response rating (cocklebur; Rate 62 g/ha, Postemergence): 0
- Plant response rating, Cocklebur (cocklebur; [4]): 0
- Plant response rating, Corn (corn; [1]): 0
- Plant response rating, Corn (corn; [2]): 0
- Plant response rating, Corn (corn; [3]): 0
- Corn plant response rating (0 to 10 scale) (corn; Preemergence, Rate 125 g/ha): 0
- Corn plant response rating (corn; Preemergence, Rate 250 g/ha): 0
- Corn plant response rating (corn; Preemergence, Rate 500 g/ha): 0
- Corn plant response rating (corn; Rate 62 g/ha, Postemergence): 0
- Plant response rating, Corn (corn; [4]): 0
- Plant response rating, Nutsedge (purple nutsedge; [1]): 0
- Plant response rating, Nutsedge (purple nutsedge; [2]): 0
- Plant response rating, Nutsedge (purple nutsedge; [3]): 0
- Nutsedge plant response rating (0 to 10 scale) (purple nutsedge; Preemergence, Rate 125 g/ha): 0
- Nutsedge plant response rating (purple nutsedge; Preemergence, Rate 250 g/ha): 0
- Nutsedge plant response rating (purple nutsedge; Preemergence, Rate 500 g/ha): 0
- Nutsedge plant response rating (purple nutsedge; Rate 62 g/ha, Postemergence): 0
- Plant response rating, Nutsedge (purple nutsedge; [4]): 0
- Plant response rating, Rice (0 to 10 scale, 0 is no effect, 10 is complete control) (rice; [5]): 0
- Rice plant response rating (0 to 10 scale, 0 is no effect, 10 is complete control) (rice; [6]): 0
- Rice plant response rating (rice; [7]): 0
- Rice plant response rating (rice; [8]): 0
- Plant response rating, Soybean (soybean; [1]): 2
- Plant response rating, Soybean (soybean; [2]): 2
- Plant response rating, Soybean (soybean; [3]): 0
- Soybean plant response rating (0 to 10 scale) (soybean; Preemergence, Rate 125 g/ha): 0
- Soybean plant response rating (soybean; Preemergence, Rate 250 g/ha): 0
- Soybean plant response rating (soybean; Preemergence, Rate 500 g/ha): 0
- Soybean plant response rating (soybean; Rate 62 g/ha, Postemergence): 2
- Plant response rating, Soybean (soybean; [4]): 2
- Plant response rating, Sugarbeets (sugar beet; [1]): 0
- Plant response rating, Sugarbeets (sugar beet; [2]): 0
- Plant response rating, Sugarbeets (sugar beet; [3]): 0
- Sugarbeets plant response rating (0 to 10 scale) (sugar beet; Preemergence, Rate 125 g/ha): 1
- Sugarbeets plant response rating (sugar beet; Preemergence, Rate 250 g/ha): 2
- Sugarbeets plant response rating (sugar beet; Preemergence, Rate 500 g/ha): 7
- Sugarbeets plant response rating (sugar beet; Rate 62 g/ha, Postemergence): 0
- Plant response rating, Sugarbeets (sugar beet; [4]): 0
- Plant response rating, B. signalgrass (surinam grass; [1]): 3
- Plant response rating, B. signalgrass (surinam grass; [2]): 6
- Plant response rating, B. signalgrass (surinam grass; [3]): 0
- B. signalgrass plant response rating (0 to 10 scale, 0 is no effect, 10 is complete control) (surinam grass; Preemergence, Rate 125 g/ha): 0
- B. signalgrass plant response rating (surinam grass; Preemergence, Rate 250 g/ha): 7
- B. signalgrass plant response rating (surinam grass; Preemergence, Rate 500 g/ha): 9
- B. signalgrass plant response rating (surinam grass; Rate 62 g/ha, Postemergence): 0
- Plant response rating, B. signalgrass (surinam grass; [4]): 8
- Plant response rating, Wheat (wheat; [1]): 0
- Plant response rating, Wheat (wheat; [2]): 0
- Plant response rating, Wheat (wheat; [3]): 0
- Wheat plant response rating (0 to 10 scale) (wheat; Preemergence, Rate 125 g/ha): 0
- Wheat plant response rating (wheat; Preemergence, Rate 250 g/ha): 3
- Wheat plant response rating (wheat; Preemergence, Rate 500 g/ha): 8
- Wheat plant response rating (wheat; Rate 62 g/ha, Postemergence): 0
- Plant response rating, Wheat (wheat; [4]): 5
- Plant response rating, S. Flatsedge (0 to 10 scale, 0 is no effect, 10 is complete control) (smallflower flatsedge; [5]): 0
- S. Flatsedge plant response rating (0 to 10 scale, 0 is no effect, 10 is complete control) (smallflower flatsedge; [6]): 0
- S. Flatsedge plant response rating (smallflower flatsedge; [7]): 0
- S. Flatsedge plant response rating (smallflower flatsedge; [8]): 0
- Plant response rating, Bedstraw (bedstraw; [2]): 0
- Plant response rating, Bedstraw (bedstraw; [3]): 0
- Plant response rating, Bedstraw (bedstraw; [4]): 3
- Plant response rating, Ducksalad (0 to 10 scale, 0 is no effect, 10 is complete control) (duck salad; [5]): 0
- Ducksalad plant response rating (0 to 10 scale, 0 is no effect, 10 is complete control) (duck salad; [6]): 0
- Ducksalad plant response rating (duck salad; [7]): 0
- Ducksalad plant response rating (duck salad; [8]): 0
- Plant response rating, Wild oats (wild oat; [1]): 0
- Plant response rating, Wild oats (wild oat; [2]): 2
- Plant response rating, Wild oats (wild oat; [3]): 0
- Wild oats plant response rating (0 to 10 scale) (wild oat; Preemergence, Rate 125 g/ha): 2
- Wild oats plant response rating (wild oat; Preemergence, Rate 250 g/ha): 7
- Wild oats plant response rating (wild oat; Preemergence, Rate 500 g/ha): 10
- Wild oats plant response rating (wild oat; Rate 62 g/ha, Postemergence): 0
- Plant response rating, Wild oats (wild oat; [4]): 3
- Plant response rating, Velvetleaf (velvetleaf; [1]): 0
- Plant response rating, Velvetleaf (velvetleaf; [2]): 0
- Plant response rating, Velvetleaf (velvetleaf; [3]): 0
- Velvetleaf plant response rating (0 to 10 scale) (velvetleaf; Preemergence, Rate 125 g/ha): 0
- Velvetleaf plant response rating (velvetleaf; Preemergence, Rate 250 g/ha): 3
- Velvetleaf plant response rating (velvetleaf; Preemergence, Rate 500 g/ha): 3
- Velvetleaf plant response rating (velvetleaf; Rate 62 g/ha, Postemergence): 0
- Plant response rating, Velvetleaf (velvetleaf; [4]): 0
